{"source": "patent US11186590B2", "about": "“Somatostatin modulators and uses thereof” (CRINETICS PHARMACEUTICALS, INC., priority 2018, dated 2021)"}
{"target": "hSSTR4 (Homo sapiens (Human), UniProt P31391)", "sequence (P31391 whole entry)": "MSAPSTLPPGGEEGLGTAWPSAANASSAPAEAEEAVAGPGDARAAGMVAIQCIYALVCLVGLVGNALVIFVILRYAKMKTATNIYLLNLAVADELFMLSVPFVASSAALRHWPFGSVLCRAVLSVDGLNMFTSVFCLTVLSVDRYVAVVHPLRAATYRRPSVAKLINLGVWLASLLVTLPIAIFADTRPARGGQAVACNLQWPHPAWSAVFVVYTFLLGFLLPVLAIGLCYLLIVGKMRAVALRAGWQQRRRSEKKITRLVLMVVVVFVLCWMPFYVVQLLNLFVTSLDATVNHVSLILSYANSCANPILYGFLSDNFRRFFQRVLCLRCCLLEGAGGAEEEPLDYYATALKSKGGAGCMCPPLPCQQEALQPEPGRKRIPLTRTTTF", "test": "selectivity for inhibition of cAMP via hSSTR2 vs. hSSTR4", "assay_type": "cell-based", "settings": "Table B", "text": "(§1) General overview: All five SSTR subtypes are Gi coupled G-protein coupled receptors (GPCRs) that lead to decreases in intracellular cyclic AMP (cAMP) when activated by an agonist. Therefore, measurement of intracellular cAMP levels can be used to assess whether compounds of the invention are agonists of SSTR subtypes (John Kelly, Troy Stevens, W. Joseph Thompson, and Roland Seifert, Current Protocols in Pharmacology, 2005, 2.2.1-2.2). One example of an intracellular cAMP assay is described below.\n(§2) Four days prior to the assay, 5,000 Chinese hamster ovary cells (CHO-K1, ATCC #CCL-61) stably expressing the human somatostatin receptor subtype 2 are plated in each well of a 96-well tissue culture-treated plate in Ham's F12 growth media (ThermoFisher #10-080-CM) supplemented with 10% donor bovine serum (Gemini Bio-Products #100-506), 100 U/mL penicillin; 100 ug/mL streptomycin; 2 mM L-glutamine (Gemini Bio-Products #400-110) and 0.2 mg/mL hygromycin B (GoldBio #31282-04-9). The cells are cultured at 37° C., 5% CO2 and 95% humidity. On the day of the assay, the media is aspirated and the cells are treated with 50 μL of 1.6 μM NKH477 (Sigma #N3290) plus various dilutions of compounds of the invention in assay buffer [1× Hank's Balanced Salt Solution (ThermoFisher #SH3058802), 0.5 mM HEPES pH 7.4, 0.1% bovine serum albumin, 0.2 mM 3-Isobutyl-1-methylxanthine (IBMX, VWR #200002-790)]. The cells are incubated for 20 minutes at 37° C. (the final concentration of the compounds of the invention are typically 0-10,000 nM). The cells are treated with 50 μL of lysis buffer (HRTF cAMP kit, Cisbio). The lysate is transferred to 384-well plates and cAMP detection and visualization antibodies are added and incubated for 1-24 hours at room temperature. The time-resolved fluorescent signal is read with a Tecan M1000Pro multiplate reader. The intracellular cAMP concentrations are calculated by regression to a standard curve and are plotted vs. the concentration of the compounds of the invention and the EC50 of the compounds are calculated using standard methods. All data manipulations are in GraphPad Prism v6."}
{"molecule": "COc1cc(C#N)cc2[nH]c(-c3c(N)ncc(-c4cc(C)cc(F)c4)c3N3CCC(N)CC3)nc12", "note": "[Compound 1-1, 2-[2-amino-4-(4-aminopiperidin-1-yl)-5-(3-fluoro-5-methylphenyl)pyridin-3-yl]-4-methoxy-1H-1,3-benzodiazole-6-carbonitrile]", "hSST4/hSST2 (ratio)": "a (a = above 50)"}
{"molecule": "COC(=O)c1ncc(-c2cc(C)cc(F)c2)c(N2CCC(N)CC2)c1-c1nc2cc(F)cc(OC)c2[nH]1", "note": "[Compound 2-1, methyl 4-(4-aminopiperidin-1-yl)-3-(6-fluoro-4-methoxy-1H-1,3-benzodiazol-2-yl)-5-(3-fluoro-5-methylphenyl)pyridine-2-carboxylate]", "hSST4/hSST2 (ratio)": "d (d = between 1 and 2.5)"}
{"molecule": "COc1cc(F)cc2nc(-c3c(C#N)ncc(-c4cc(C)cc(F)c4)c3N3CCC(N)CC3)[nH]c12", "note": "[Compound 2-2, 4-(4-aminopiperidin-1-yl)-3-(6-fluoro-4-methoxy-1H-1,3-benzodiazol-2-yl)-5-(3-fluoro-5-methylphenyl)pyridine-2-carbonitrile]", "hSST4/hSST2 (ratio)": "e (e = between 1 and 0.5)"}
{"molecule": "COc1cc(F)cc2nc(-c3c(C(N)=O)ncc(-c4cc(C)cc(F)c4)c3N3CCC(N)CC3)[nH]c12", "note": "[Compound 2-3, 4-(4-aminopiperidin-1-yl)-3-(6-fluoro-4-methoxy-1H-1,3-benzodiazol-2-yl)-5-(3-fluoro-5-methylphenyl)pyridine-2-carboxamide]", "hSST4/hSST2 (ratio)": "b (b = between 15 and 50)"}
{"target": "hSSTR4 (Homo sapiens (Human), UniProt P31391)", "test": "selectivity for inhibition of cAMP via hSSTR2 vs. hSSTR4", "assay_type": "cell-based", "settings": "Table C", "text": "as §1, §2"}
{"molecule": "Nc1ncc(-c2cccc(F)c2)c(N2CC[C@@H]3NCCO[C@H]3C2)c1-c1nc2c(F)cc(F)cc2[nH]1", "note": "[Compound 3-3, 4-[(4αS,8αS)-octahydro-1H-pyrido[3,4-b][1,4]oxazin-6-yl]-3-(4,6-difluoro-1H-1,3-benzodiazol-2-yl)-5-(3-fluorophenyl)pyridin-2-amine]", "hSST4/hSST2 (ratio)": "c (c = between 2.5 and 15)"}
{"molecule": "COc1cc(F)cc2[nH]c(-c3c(N)ncc(-c4cccc(F)c4)c3N3CC[C@@H]4NCCO[C@H]4C3)nc12", "note": "[Compound 3-9, 4-[(4αS,8αS)-octahydro-1H-pyrido[3,4-b][1,4]oxazin-6-yl]-3-(6-fluoro-4-methoxy-1H-1,3-benzodiazol-2-yl)-5-(3-fluorophenyl)pyridin-2-amine]", "hSST4/hSST2 (ratio)": "c (c = between 2.5 and 15)"}
{"molecule": "CNc1ncc(-c2cccc(F)c2)c(N2CC[C@@H]3NCCO[C@H]3C2)c1-c1nc2c(OC)cc(F)cc2[nH]1", "note": "[Compound 3-10, 4-[(4αS,8αS)-octahydro-1H-pyrido[3,4-b][1,4]oxazin-6-yl]-3-(6-fluoro-4-methoxy-1H-1,3-benzodiazol-2-yl)-5-(3-fluorophenyl)-N-methylpyridin-2-amine]", "hSST4/hSST2 (ratio)": "a (a = above 50)"}
{"molecule": "COc1cc(C#N)cc2[nH]c(-c3c(N)ncc(-c4cccc(F)c4)c3N3CC[C@@H]4NCCO[C@H]4C3)nc12", "note": "[Compound 3-11, 2-{4-[(4αS,8αS)-octahydro-1H-pyrido[3,4-b][1,4]oxazin-6-yl]-2-amino-5-(3-fluorophenyl)pyridin-3-yl}-4-methoxy-1H-1,3-benzodiazole-6-carbonitrile]", "hSST4/hSST2 (ratio)": "a (a = above 50)"}
{"molecule": "CNc1ncc(-c2cccc(F)c2)c(N2CC[C@@H]3NCCO[C@H]3C2)c1-c1nc2c(OC)cc(C#N)cc2[nH]1", "note": "[Compound 3-12, 2-[4-[(4αS,8αS)-octahydro-1H-pyrido[3,4-b][1,4]oxazin-6-yl]-5-(3-fluorophenyl)-2-(methylamino)pyridin-3-yl]-4-methoxy-1H-1,3-benzodiazole-6-carbonitrile]", "hSST4/hSST2 (ratio)": "a (a = above 50)"}
{"molecule": "CNc1ncc(-c2cc(F)cc(Cl)c2)c(N2CC[C@@H]3NCCO[C@H]3C2)c1-c1nc2c(OC)cc(F)cc2[nH]1", "note": "[Compound 3-13, 4-[(4αS,8αS)-octahydro-1H-pyrido[3,4-b][1,4]oxazin-6-yl]-5-(3-chloro-5-fluorophenyl)-3-(6-fluoro-4-methoxy-1H-1,3-benzodiazol-2-yl)-N-methylpyridin-2-amine]", "hSST4/hSST2 (ratio)": "a (a = above 50)"}
{"molecule": "COc1cc(F)cc2[nH]c(-c3c(N)ncc(-c4cc(F)cc(Cl)c4)c3N3CC[C@@H]4OCCN[C@H]4C3)nc12", "note": "[Compound 3-17, 4-[(4αS,8αS)-octahydro-1H-pyrido[3,4-b][1,4]oxazin-6-yl]-5-(3-chloro-5-fluorophenyl)-3-(6-fluoro-4-methoxy-1H-1,3-benzodiazol-2-yl)pyridin-2-amine]", "hSST4/hSST2 (ratio)": "c (c = between 2.5 and 15)"}
{"molecule": "COc1cc(C#N)cc2[nH]c(-c3c(N)ncc(-c4cc(F)cc(F)c4)c3N3CC[C@@H]4NCCO[C@H]4C3)nc12", "note": "[Compound 3-18, 2-{4-[(4αS,8αS)-octahydro-1H-pyrido[3,4-b][1,4]oxazin-6-yl]-2-amino-5-(3,5-difluorophenyl)pyridin-3-yl}-4-methoxy-1H-1,3-benzodiazole-6-carbonitrile]", "hSST4/hSST2 (ratio)": "b (b = between 15 and 50)"}
{"molecule": "N#Cc1cc(F)c2nc(-c3c(N)ncc(-c4cc(F)cc(F)c4)c3N3CC[C@@H]4OCCN[C@H]4C3)[nH]c2c1", "note": "[Compound 3-19, 2-{4-[(4αS,8αS)-octahydro-1H-pyrido[3,4-b][1,4]oxazin-6-yl]-2-amino-5-(3,5-difluorophenyl)pyridin-3-yl}-4-fluoro-1H-1,3-benzodiazole-6-carbonitrile]", "hSST4/hSST2 (ratio)": "b (b = between 15 and 50)"}
{"system": "not listed separately", "test": "Liver microsomal stability assay", "assay_type": "in vitro ADME", "settings": "human liver microsomes, 0.5 mg/mL protein, 37° C.", "method": "The in vitro stabilities of compounds of interest were determined for various species using pooled male and female human, pooled male Sprague-Dawley rat, pooled male Cynomolgus monkey, and pooled male Beagle dog liver microsomes at microsomal protein concentrations of 0.5 mg/mL. Incubations were carried out in a potassium phosphate buffer (50 mM). The NADPH-generating system was composed of NADP+ (1 mM), magnesium chloride (3 mM), EDTA (1 mM), glucose-6-phosphate (5 mM) and glucose-6-phosphate dehydrogenase (1 Unit/mL) for all experiments. Compounds of interest in DMSO were added to achieve a final incubation concentration of […] (final DMSO content was 0.1% v/v and final acetonitrile content was 0.9%). The final incubation volume was 400 μL. Incubations were conducted at 37° C. for 0, 5, 10, 20, 40 and 60 minutes in a shaking water bath and terminated by removing 50 µL of incubation mixture and adding to 100 μL of ice cold acetonitrile containing internal standard. Following precipitation by centrifugation at 3500 rpm and 4° C. for 30 minutes, compounds of interest and internal standard were analyzed in the resultant supernatant using a multiple reaction monitoring (MRM) LC-MS/MS method. MS conditions were optimized for each analyte.\nThe following Table (Table D) illustrates human liver microsomal stability of exemplary compounds.", "units": {"HLM t1/2": "h"}}
{"molecule": "COc1cc(C#N)cc2[nH]c(-c3c(N)ncc(-c4cc(F)cc(F)c4)c3N3CC[C@@H]4NCCO[C@H]4C3)nc12", "note": "[Compound 3-18, 2-{4-[(4αS,8αS)-octahydro-1H-pyrido[3,4-b][1,4]oxazin-6-yl]-2-amino-5-(3,5-difluorophenyl)pyridin-3-yl}-4-methoxy-1H-1,3-benzodiazole-6-carbonitrile]", "HLM t1/2": 1.65}
